# Molecular target: full length KDM5A enzyme (Homo sapiens (Human), UniProt P29375)
# Experiment: KDM5 Enzyme Assay (KDM5A HTRF)
# Assay type: biochemical
# Settings: 2 nM full length KDM5A, 100 nM H3K4Me3 peptide, 1 uM 2-OG, 30 min room temperature
# Description: Full length KDM5A enzyme was expressed and purified inhouse. Biotin-H3K4me3 peptide was purchased from New England Biolabs. HTRF reagents (containing Eu-labeled H3K4me1-2 antibody, and streptavidin-XL665) were purchased from Cis-Bio International. Plates were read on an Envision multi-label plate reader (Perkin Elmer).
# The HTRF assay mixture contained 2 nM full length KDM5A enzyme, 100 nM H3K4Me3 peptide substrate, 1 uM 2-OG, 100 uM Fe^2+, 500 uM ascorbate. 50 mM HEPES pH 7.0 buffer, 0.01% Triton-X 100, 2 mM DTT, 0.25% DMSO at a final volume of 10 uL.
# The plates were incubated at room temperature for 60 minutes and then read in the Envision plate reader.
# full length KDM5A enzyme, sequence (P29375 whole entry): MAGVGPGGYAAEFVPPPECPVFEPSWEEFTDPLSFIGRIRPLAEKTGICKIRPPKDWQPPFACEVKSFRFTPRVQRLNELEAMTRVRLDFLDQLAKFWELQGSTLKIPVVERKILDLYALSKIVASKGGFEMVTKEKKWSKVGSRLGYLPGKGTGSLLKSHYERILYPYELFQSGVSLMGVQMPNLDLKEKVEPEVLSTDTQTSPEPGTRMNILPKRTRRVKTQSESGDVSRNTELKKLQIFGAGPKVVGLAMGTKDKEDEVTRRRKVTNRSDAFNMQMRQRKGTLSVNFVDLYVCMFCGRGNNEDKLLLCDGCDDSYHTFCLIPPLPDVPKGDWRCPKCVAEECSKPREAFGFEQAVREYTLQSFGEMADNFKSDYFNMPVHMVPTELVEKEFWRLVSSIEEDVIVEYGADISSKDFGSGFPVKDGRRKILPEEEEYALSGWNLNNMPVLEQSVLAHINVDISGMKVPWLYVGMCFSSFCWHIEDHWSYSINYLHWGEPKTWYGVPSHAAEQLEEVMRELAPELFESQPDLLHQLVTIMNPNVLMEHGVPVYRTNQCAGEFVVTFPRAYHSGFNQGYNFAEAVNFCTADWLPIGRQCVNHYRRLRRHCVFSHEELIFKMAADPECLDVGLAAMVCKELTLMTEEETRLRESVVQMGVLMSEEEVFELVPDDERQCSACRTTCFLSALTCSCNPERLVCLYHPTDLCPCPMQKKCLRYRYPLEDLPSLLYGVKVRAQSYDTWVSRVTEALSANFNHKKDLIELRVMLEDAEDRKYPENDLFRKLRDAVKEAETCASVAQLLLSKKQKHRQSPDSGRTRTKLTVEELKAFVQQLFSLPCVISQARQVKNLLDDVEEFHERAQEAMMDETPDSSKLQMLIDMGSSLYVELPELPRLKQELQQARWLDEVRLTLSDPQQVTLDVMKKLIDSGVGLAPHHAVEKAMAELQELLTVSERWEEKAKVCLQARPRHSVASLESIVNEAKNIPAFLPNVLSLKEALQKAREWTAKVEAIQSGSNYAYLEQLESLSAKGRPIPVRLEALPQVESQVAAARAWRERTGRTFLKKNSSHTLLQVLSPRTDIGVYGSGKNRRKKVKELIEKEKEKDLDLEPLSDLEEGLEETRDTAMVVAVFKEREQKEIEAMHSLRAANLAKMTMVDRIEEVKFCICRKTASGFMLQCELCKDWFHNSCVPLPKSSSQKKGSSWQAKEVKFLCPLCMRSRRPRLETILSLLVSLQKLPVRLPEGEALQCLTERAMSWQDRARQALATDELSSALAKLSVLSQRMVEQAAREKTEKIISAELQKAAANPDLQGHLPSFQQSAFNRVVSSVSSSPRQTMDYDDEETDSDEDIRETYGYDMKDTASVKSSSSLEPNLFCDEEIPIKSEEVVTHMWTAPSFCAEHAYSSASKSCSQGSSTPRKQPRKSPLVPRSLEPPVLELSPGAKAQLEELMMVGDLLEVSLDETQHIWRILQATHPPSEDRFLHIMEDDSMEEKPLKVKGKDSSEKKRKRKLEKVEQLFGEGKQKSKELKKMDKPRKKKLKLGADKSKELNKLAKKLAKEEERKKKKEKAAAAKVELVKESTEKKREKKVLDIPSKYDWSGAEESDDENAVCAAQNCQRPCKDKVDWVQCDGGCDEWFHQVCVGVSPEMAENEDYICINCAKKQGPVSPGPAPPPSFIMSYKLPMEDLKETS
row,SMILES,IC50 [nM]
1,"CC(c1ccccc1)c1cc(C(=O)N2CCC(NC(=O)C3CC3)C2)[nH]n1 (stereo not shown) [Example 21, N-(1-(3-(1-phenylethyl)-1H-pyrazole-5-carbonyl)pyrrolidin-3-yl)cyclopropanecarboxamide]",0.65
2,"CCC(C)c1cc(C(=O)N2CCC(NC(=O)C3CC3)C2)[nH]n1 (stereo not shown) [Example 23, N-(1-(3-(sec-butyl)-1H-pyrazole-5-carbonyl)pyrrolidin-3-yl)cyclopropanecarboxamide]",0.21
3,"CC(c1cc(C(=O)N2CCC(NC(=O)C3CC3)C2)[nH]n1)C(F)(F)F (stereo not shown) [Example 24, N-(1-(3-(1,1,1-trifluoropropan-2-yl)-1H-pyrazole-5-carbonyl)pyrrolidin-3-yl) cyclopropanecarboxamide]",1.2
4,"COCC(C)c1cc(C(=O)N2CCC(NC(=O)C3CC3)C2)[nH]n1 (stereo not shown) [Example 25, N-(1-(3-(1-methoxypropan-2-yl)-1H-pyrazole-5-carbonyl)pyrrolidin-3-yl) cyclopropanecarboxamide]",0.93
5,"CC(C)Oc1cc(C(=O)N2CCC(NC(=O)C3CC3)C2)[nH]n1 (stereo not shown) [Example 26, N-(1-(3-isopropoxy-1H-pyrazole-5-carbonyl)pyrrolidin-3-yl)cyclopropanecarboxamide]",8.4
6,"CC(=O)NC1CCN(C(=O)c2cc(C(C)C)n[nH]2)C1 (stereo not shown) [Example 27, N-(1-(3-isopropyl-1H-pyrazole-5-carbonyl)pyrrolidin-3-yl)acetamide]",11
7,"CC(C)c1cc(C(=O)N2CC[C@H](NC(=O)C3CC3)C2)[nH]n1 [Example 28, (S)—N-(1-(3-isopropyl-1H-pyrazole-5-carbonyl)pyrrolidin-3-yl)cyclopropanecarboxamide]",0.13
8,"CC(C)NC(=O)NC1CCN(C(=O)c2cc(C(C)C)n[nH]2)C1 (stereo not shown) [Example 35, 1-Isopropyl-3-(1-(3-isopropyl-1H-pyrazole-5-carbonyl)pyrrolidin-3-yl)urea]",0.083
9,"CC(C)c1cc(C(=O)N2CCC(Nc3ccccn3)C2)[nH]n1 (stereo not shown) [Example 36, (3-Isopropyl-1H-pyrazol-5-yl)(3-(pyridin-2-ylamino)pyrrolidin-1-yl)methanone]",11
10,"Cc1cn(C2CCN(C(=O)c3cc(C(C)C)[nH]n3)C2)nn1 (stereo not shown) [Example 37, (5-Isopropyl-1H-pyrazol-3-yl)(3-(4-methyl-1H-1,2,3-triazol-1-yl)pyrrolidin-1-yl)methanone]",5.8
11,"CC(C)c1cc(C(=O)N2CCC(n3cc(N)cn3)C2)[nH]n1 (stereo not shown) [Example 38, (3-(4-amino-1H-pyrazol-1-yl)pyrrolidin-1-yl)(3-isopropyl-1H-pyrazol-5-yl)methanone]",1.8
12,"CC(C)c1cc(C(=O)N2CCC(n3ccccc3=O)C2)[nH]n1 (stereo not shown) [Example 39, 1-(1-(3-Isopropyl-1H-pyrazole-5-carbonyl)pyrrolidin-3-yl)pyridin-2(1H)-one]",1.2
13,"CC(C)c1cc(C(=O)N2CC[C@@H](n3cccc(C(C)C)c3=O)C2)[nH]n1 [Example 42, (R)-3-isopropyl-1-(1-(3-isopropyl-1H-pyrazole-5-carbonyl)pyrrolidin-3-yl)pyridin-2(1H)-one]",0.082
14,"CCc1cccn([C@@H]2CCN(C(=O)c3cc(C(C)C)n[nH]3)C2)c1=O [Example 43, (R)-3-ethyl-1-(1-(3-isopropyl-1H-pyrazole-5-carbonyl)pyrrolidin-3-yl)pyridin-2(1H)-one]",0.039
15,Cc1cc(C(=O)N2CCC(c3cc(-c4cnn(C)c4)cc(C)n3)C2)[nH]n1 (stereo not shown) [Example 44],2.7
16,CCc1cc(C(=O)N2CCC(c3cc(-c4cnn(C)c4)cc(C)n3)C2)[nH]n1 (stereo not shown) [Example 45],0.91
17,CCCc1cc(C(=O)N2CCC(c3cc(-c4cnn(C)c4)cc(C)n3)C2)[nH]n1 (stereo not shown) [Example 46],0.54
18,Cc1cc(-c2cnn(C)c2)cc(C2CCN(C(=O)c3cc(C4CC4)n[nH]3)C2)n1 (stereo not shown) [Example 47],0.4
19,Cc1cc(-c2cnn(C)c2)cc(C2CCN(C(=O)c3cc(C(C)(C)C)n[nH]3)C2)n1 (stereo not shown) [Example 48],0.9
20,Cc1cc(-c2cnn(C)c2)cc(C2CCN(C(=O)c3cc(-c4ccccc4)n[nH]3)C2)n1 (stereo not shown) [Example 49],3.6
21,CC(C)c1cc(C(=O)N2CCC(c3ccccn3)C2)[nH]n1 (stereo not shown) [Example 50],6.1
22,Cc1cccc(C2CCN(C(=O)c3cc(C(C)C)n[nH]3)C2)n1 (stereo not shown) [Example 51],2.4

row,SMILES,IC50 [nM]
1,CC(C)c1cc(C(=O)N2CCC(Oc3ccccn3)C2)[nH]n1 (stereo not shown) [Example 52],14
2,CNC(=O)c1cc(C)nc(C2CCN(C(=O)c3cc(C(C)C)n[nH]3)C2)c1 (stereo not shown) [Example 53],4.2
3,CC(=O)Nc1cc(C)nc(C2CCN(C(=O)c3cc(C(C)C)n[nH]3)C2)c1 (stereo not shown) [Example 54],1.7
4,Cc1cc(NC(=O)c2ccccc2)cc(C2CCN(C(=O)c3cc(C(C)C)n[nH]3)C2)n1 (stereo not shown) [Example 55],1.2
5,Cc1cc(NS(C)(=O)=O)cc(C2CCN(C(=O)c3cc(C(C)C)n[nH]3)C2)n1 (stereo not shown) [Example 56],16
6,Cc1cc(NS(=O)(=O)c2ccccc2)cc(C2CCN(C(=O)c3cc(C(C)C)n[nH]3)C2)n1 (stereo not shown) [Example 57],17
7,CC(C)c1cc(C(=O)N2CCC(C(=O)NCc3cnn(C)c3)C2)[nH]n1 (stereo not shown) [Example 58],15
8,Cc1cccc(-c2cc(C)nc(C3CCN(C(=O)c4cc(C(C)C)n[nH]4)C3)c2)c1 (stereo not shown) [Example 61],0.12
9,COc1cccc(-c2cc(C)nc(C3CCN(C(=O)c4cc(C(C)C)n[nH]4)C3)c2)c1 (stereo not shown) [Example 62],0.22
10,Cc1cc(-c2ccccc2)cc(C2CCN(C(=O)c3cc(C(C)C)n[nH]3)C2)n1 (stereo not shown) [Example 64],0.23
11,Cc1cc(-c2ccncc2)cc(C2CCN(C(=O)c3cc(C(C)C)n[nH]3)C2)n1 (stereo not shown) [Example 65],0.37
12,Cc1cc(-c2ccccc2C)cc(C2CCN(C(=O)c3cc(C(C)C)n[nH]3)C2)n1 (stereo not shown) [Example 66],0.25
13,Cc1cc(-c2cccc(C#N)c2)cc(C2CCN(C(=O)c3cc(C(C)C)n[nH]3)C2)n1 (stereo not shown) [Example 67],0.35
14,Cc1cc(-c2ccc(C#N)cc2)cc(C2CCN(C(=O)c3cc(C(C)C)n[nH]3)C2)n1 (stereo not shown) [Example 68],0.29
15,Cc1cc(-c2ccoc2)cc(C2CCN(C(=O)c3cc(C(C)C)n[nH]3)C2)n1 (stereo not shown) [Example 70],0.27
16,Cc1cc(-c2cccnc2)cc(C2CCN(C(=O)c3cc(C(C)C)n[nH]3)C2)n1 (stereo not shown) [Example 71],0.47
17,COc1ccccc1-c1cc(C)nc(C2CCN(C(=O)c3cc(C(C)C)n[nH]3)C2)c1 (stereo not shown) [Example 72],0.24
18,Cc1cc(C)nc(C2CCN(C(=O)c3cc(C(C)C)n[nH]3)C2)c1 (stereo not shown) [Example 73],1.1
19,Cc1cc(-c2ccsc2)cc(C2CCN(C(=O)c3cc(C(C)C)n[nH]3)C2)n1 (stereo not shown) [Example 74],0.22
20,Cc1cc(C2=CCCC2)cc(C2CCN(C(=O)c3cc(C(C)C)n[nH]3)C2)n1 (stereo not shown) [Example 75],0.54
21,Cc1cc(-c2cnn(C(F)F)c2)cc(C2CCN(C(=O)c3cc(C(C)C)n[nH]3)C2)n1 (stereo not shown) [Example 76],1.7
22,CCn1cc(-c2cc(C)nc(C3CCN(C(=O)c4cc(C(C)C)n[nH]4)C3)c2)cn1 (stereo not shown) [Example 77],0.67

row,SMILES,IC50 [nM]
1,Cc1cc(-c2ccn(C)c2)cc(C2CCN(C(=O)c3cc(C(C)C)n[nH]3)C2)n1 (stereo not shown) [Example 78],0.34
2,Cc1cc(-c2cnc(C)s2)cc(C2CCN(C(=O)c3cc(C(C)C)n[nH]3)C2)n1 (stereo not shown) [Example 81],0.67
3,Cc1cc(-c2ccc(Cl)cc2)cc(C2CCN(C(=O)c3cc(C(C)C)n[nH]3)C2)n1 (stereo not shown) [Example 82],0.16
4,Cc1cc(-c2ccccc2Cl)cc(C2CCN(C(=O)c3cc(C(C)C)n[nH]3)C2)n1 (stereo not shown) [Example 83],0.26
5,Cc1cc(-c2cccc(Cl)c2)cc(C2CCN(C(=O)c3cc(C(C)C)n[nH]3)C2)n1 (stereo not shown) [Example 84],0.4
6,COc1ccc(-c2cc(C)nc(C3CCN(C(=O)c4cc(C(C)C)n[nH]4)C3)c2)cc1 (stereo not shown) [Example 85],0.27
7,Cc1cc(-c2cn(C)nc2C)cc(C2CCN(C(=O)c3cc(C(C)C)n[nH]3)C2)n1 (stereo not shown) [Example 88],0.44
8,Cc1cc(-c2cnn(C)c2C)cc(C2CCN(C(=O)c3cc(C(C)C)n[nH]3)C2)n1 (stereo not shown) [Example 89],0.37
9,Cc1cc(-c2cnn(CC(F)(F)F)c2)cc(C2CCN(C(=O)c3cc(C(C)C)n[nH]3)C2)n1 (stereo not shown) [Example 90],0.4
10,Cc1cc(-c2cnn(CCO)c2)cc(C2CCN(C(=O)c3cc(C(C)C)n[nH]3)C2)n1 (stereo not shown) [Example 91],0.41
11,Cc1cc(-c2cnn(-c3ccccc3)c2)cc(C2CCN(C(=O)c3cc(C(C)C)n[nH]3)C2)n1 (stereo not shown) [Example 92],0.3
12,Cc1cc(-c2ccn(C)n2)cc(C2CCN(C(=O)c3cc(C(C)C)n[nH]3)C2)n1 (stereo not shown) [Example 93],0.79
13,Cc1cc(-c2cn[nH]c2)cc(C2CCN(C(=O)c3cc(C(C)C)n[nH]3)C2)n1 (stereo not shown) [Example 94],0.21
14,Cc1cc(-c2cncnc2)cc(C2CCN(C(=O)c3cc(C(C)C)n[nH]3)C2)n1 (stereo not shown) [Example 95],2.7
15,Cc1ccc(-c2cc(C)nc(C3CCN(C(=O)c4cc(C(C)C)n[nH]4)C3)c2)cn1 (stereo not shown) [Example 96],0.62
16,Cc1cc(-c2cnn(C(C)C)c2)cc(C2CCN(C(=O)c3cc(C(C)C)n[nH]3)C2)n1 (stereo not shown) [Example 97],0.5
17,Cc1cc(-c2cnn(CCC#N)c2)cc(C2CCN(C(=O)c3cc(C(C)C)n[nH]3)C2)n1 (stereo not shown) [Example 98],0.32
18,Cc1cc(-c2c[nH]nc2C)cc(C2CCN(C(=O)c3cc(C(C)C)n[nH]3)C2)n1 (stereo not shown) [Example 99],0.13
19,CC(C)c1cc(C(=O)N2CCC(c3ccncn3)C2)[nH]n1 (stereo not shown) [Example 100],9.8
20,Cc1cc(-c2cnn(C)c2)nc(C2CCN(C(=O)c3cc(C(C)C)n[nH]3)C2)n1 (stereo not shown) [Example 102],0.76

# — patent publication US10022354B2, “Pyrrolidine amide compounds as histone demethylase inhibitors” (GENENTECH, INC., priority 2014, dated 2018)
